Experimental data as given in publication PMC7377376, “Drug targeting CYP2E1 for the treatment of early-stage alcoholic steatohepatitis” (PLoS ONE, 2020).

Experiments:
[1] = system: ethanol-fed Wistar rats; experiment: Oxidative stress parameters in liver of ethanol-fed rats (Lieber-DeCarli diet); type: in vivo; parameters: GR activity reduction compared to disease group / increase of ethanol effect on GR activity / hydrogen peroxide amount reduced below the reference value: concentration or dose not given beside the values; conditions: rat liver; for reduction of ethanol effect on hydrogen peroxide: I-ol, I-an 0.4/4/40 mg/kg b.w., UDCA 40 mg/kg; for reduction of ethanol effect on hydrogen peroxide / hydrogen peroxide decrease compared to disease group / reduction of ethanol effect on reduced glutathione (GSH): oral; for reduction of ethanol effect on hydrogen peroxide / hydrogen peroxide decrease compared to disease group / reduction of ethanol effect on reduced glutathione (GSH) / SRA decrease compared to disease group: 10 weeks; for increase of ethanol effect on GR activity: as worded in Fig 3 legend; for GSH elevation compared to disease group / SRA decrease compared to disease group: average over 0.4/4/40 mg/kg b.w.; for SRA decrease compared to disease group: daily oral gavage; for reduction of ethanol effect on glutathione reductase (GR) activity: average over doses (UDCA 40 mg/kg); for GPx activity below the reference value in healthy animals: highest concentration (UDCA 40 mg/kg b.w.); for reduction of ethanol effect on glutathione peroxidase (GPx) activity: on average
From the text: (§1) A total of 68 female Wistar rats (Institute of Pharmacology and Biochemistry Breeding House, Minsk, Belarus) aged 80–90 days and weighting 180–200 g at the beginning of the experiments were used in the study. Each rat group (n = 6–8) was housed in a separate cage and had free access to the liquid diet during the full study period. Prior to the study, the animals were habituated for seven days to the cage conditions and experimental handling. The rats were maintained in a controlled experimental environment (20–25°C, 40–50% humidity, 12 h light per day, room with a 12-h light/dark cycle).
(§2) Rats were divided into ten groups characterized by the diet and the test compounds (S1 Table). Group 1 is the first control group in which a normal solid standard diet was fed for 12 weeks. All other groups received the liquid Lieber-DeCarli (LDC) diet (S2 Table), which combines food and drink in a liquid manner. It was prepared by ssniff Spezialdiäten GmbH, Soest. The addition of maltodextrin to this diet should compensate the pure caloric effect of ethanol, whereby 1.77 g maltodextrin replaces 1 g ethanol. The calorie value of both the control and ethanol diets was the same: 35% calories from fat, 11% from carbohydrates, 18% from protein and 36% from ethanol.
(§3) In the first two weeks rats of all groups–with the exception of group 1 –were fed with LDC diet plus maltodextrin in an appropriate amount to adapt the animals to the liquid diet. Group 2 is the second control group in which the isocaloric diet was administered for further 10 weeks until the end of the experiment. […] The test compounds I-ol, I-an and UDCA were dissolved in a 0.8% aqueous HPMC gel to obtain the appropriate concentrations: (1) I-ol with 0.4, 4 and 40 mg/kg b. w. (2) I-an with 0.4, 4 and 40 mg/kg b. w. (3) UDCA with 40 mg/kg b. w. Rats of group 2 and 3 received only HPMC as a placebo. The LDC diets were fed ad libitum and their intake per cage was controlled daily. The corresponding bottles were stored in the cages from 08:00 a. m. until 06:00 p. m. and replaced by drinking water bottles overnight until 08:00 a. m. in the next morning. Every day at the same time, the test compounds or only HPMC were administered intragastrically by oral gavage with an administration volume of 2 ml/kg b. w. After ten weeks of treatment, the rats were anesthetized with an intraperitoneal injection of a 5% pentobarbital solution and then killed by aorta scarification. Their livers were dissected and liver pieces frozen and stored in liquid nitrogen. A part of the liver was fixed for histological investigations. Blood was collected before sacrifice, centrifuged for serum preparation and finally stored in liquid nitrogen.
The generation of reactive oxygen species (ROS) in rat liver was evaluated by NADPH-induced chemiluminescence with amplification by both luminol for the detection of superoxide (SRA) radical anion and lucigenin detecting hydrogen peroxide as described by Müller-Peddinhaus. In short, liver pieces were homogenized in 0.1 M sodium phosphate buffer pH 7.4. The homogenates were centrifuged at 9,000 x g at 0°C and aliquots were used for the measurement. Reduced glutathione (GSH) was determined by a modified Ellman`s method: 0.2 ml of the liver homogenates’ supernatant were added to 1.6 ml of an EDTA-/sodium […] solution. The absorbance was read at […] against blanks. GSH solution—prepared immediately before use—served as a standard. End products of the lipid peroxidation reaction are equivalent to TBARS (thiobarbituric acid-reacting substances) and their concentration was measured according to Buege et al.. The enzymatic activity of cytosolic glutathione peroxidase (GPx) and microsomal glutathione reductase (GR) were determined as described by Buko at al.. Catalase activity was evaluated by spectrophotometric measurement using hydrogen peroxide as a substrate according to Beers et al.. […]

[2] = system: ethanol-fed Wistar rats; experiment: Serum liver enzyme activities of ethanol-fed rats; type: in vivo, rat; conditions: for reduction of ethanol effect on γ-GT activity: UDCA 40 mg/kg; for reduction of ethanol effect on ALT activity: average over 0.4/4/40 mg/kg b.w.; for γ-GT activity above the reference value of healthy animals: highest concentration
From the text: as §1, §2, §3
The serum marker enzyme activities, alanine aminotransferase (ALT), aspartate aminotransferase (AST), alkaline phosphatase (AP) and gamma-glutamyltransferase (γ-GT) as well as triglycerides and bilirubin were measured according to manufacturer’s instructions using standard commercial kits from Lachema (PLIVA-Lachema Diagnostika, Czech Republic). Serum concentrations of leptin, adiponectin and TNF-alpha were analyzed using commercial ELISA test kits: BioCat GmbH (Heidelberg, German) for adiponectin and TNF-alpha, BioVendor Laboratory Medicine Inc. (Brno, Czech Republic) for leptin. Insulin serum concentration was determined by radioimmunoassay using the commercially available kit RIO-insulin-PG-J125 (IBOCH, Minsk, Belarus). Glucose serum concentration was determined by the Accu-Check Active blood glucose testing system from Roche-Diagnostics GmbH (Mannheim, Germany).

[3] = biological target: rat liver microsomes; experiment: Difference spectra titration of rat liver microsomes; conditions: one specific binding site
Method: Liver microsomes were prepared as follows: Rat liver was homogenized in 33 mM TRIS*HCl pH 7.4, 33 mM KCl, 1 mM EDTA, 250 mM sucrose and protease inhibitors. The homogenate was centrifuged first at 600 g then at 6,500 g for 10 minutes to separate nuclei and mitochondria. Supernatant was centrifuged at 105,000 g for 60 minutes. The pellet (microsomal fraction) was dissolved in 10 mM TRIS*HCl pH 7.4, 10 mM EDTA, 50% glycerol and stored at -80°C [20].
Difference spectra measurements were performed in tandem cuvettes at 37°C. The sample as well as the reference chamber contained rat liver microsomes in 100 mM HEPES buffer (pH 7.6). The baseline was recorded between 365 and 500 nm. Varying concentrations of 12-Imidazolyl-dodecan-1-yl-phosphocholine (5–95 μM) were added to rat microsomes. Difference spectra were obtained after the system reached equilibrium.

[4] = parameters: method as in earlier work; conditions: compared among I-ol, I-an and I-phosphocholines; ref "ω-imidazolyl-alkyl derivatives as new preclinical drug candidates for NASH therapy"; cited from earlier work
[5] = average over 0.4/4/40 mg/kg b.w. (UDCA 40 mg/kg)
[6] = average over doses (UDCA 40 mg/kg)

| SMILES | GR activity reduction compared to disease group [1] [%] | reduction of ethanol effect on hydrogen peroxide [1] | increase of ethanol effect on GR activity [1] [%] | GSH elevation compared to disease group [1] [%] | hydrogen peroxide decrease compared to disease group [1, 5] [%] | reduction of ethanol effect on reduced glutathione (GSH) [1, 5] [%] | SRA decrease compared to disease group [1] [%] | GPx activity elevation compared to disease group ([1]; average over doses) [%] | reduction of ethanol effect on glutathione reductase (GR) activity [1] [%] | TBARS level below the reference values of healthy animals ([1]; highest concentration) [%] | GPx activity below the reference value in healthy animals [1] [%] | reduction of ethanol effect on glutathione peroxidase (GPx) activity [1] | reduction of ethanol effect on γ-GT activity [2] [%] | reduction of ethanol effect on ALT activity [2] [%] | ALT activity decrease compared to disease group [2, 6] [%] | AST activity decrease compared to disease group [2, 6] [%] | reduction of ethanol effect on AST activity [2, 6] [%] | γ-GT activity decrease compared to disease group [2, 6] [%] | γ-GT activity above the reference value of healthy animals [2] [%] | AST activity above the reference value of healthy animals ([2]; lowest concentration) [%] | further results |
| --- | --- | --- | --- | --- | --- | --- | --- | --- | --- | --- | --- | --- | --- | --- | --- | --- | --- | --- | --- | --- | --- |
| CCCCCCCCCCCCn1ccnc1 [I-an, 1-Imidazolyldodecane] | 11 | completely reduced | 43 | 94 | 78 | 55 | 43 | 10 | 43 | 31 | 10 | completely reduced | 60 | 59 | 24 | 11 | 48 | 33 | 12 | 6 | hydrogen peroxide amount reduced below the reference value [1]: 56%; reduction of ethanol effect on TBARS [1, 5]: 93%; TBARS decrease compared to disease group ([1]; average over doses): 40%; GSH value above the reference value of healthy animals ([1]; highest concentration): 2%; AP activity decrease compared to disease group [2, 6]: 29%; reduction of ethanol effect on alkaline phosphatase (AP) activity ([2]; on average (UDCA 40 mg/kg)): 96% |
| OCCCCCCCCCCCCn1ccnc1 [I-ol] | 10 | completely reduced | 41 | 62 | 75 | 36 | 36 | 17 | 41 | 11 | 8 | completely reduced | 68 | 70 | 29 | 14 | 60 | 37 | 28 | 6 | TBARS decrease compared to disease group ([1]; highest concentration): 50%; ALT activity (in words) ([2]; lowest concentration): complete restoration of the basic activity; AP activity decrease compared to disease group ([2]; lowest concentration): 27%; reduction of ethanol effect on alkaline phosphatase (AP) activity ([2]; lowest concentration): 87%; Kd [3]: 0.578 µM; tolerability in acute toxicity study (in words) [4]: best tolerated compound |
